From patent US8288410B2, “3-substituted quinolinium and 7H-indolo[2,3-c]quinolinium salts as new antiinfectives” (Florida Agricultural and Mechanical University, priority 2008, dated 2012)

Columns and labels:
[1] = test system: Aspergillus fumigatus ATCC 90906; assay: Antifungal susceptibility testing, Aspergillus fumigatus; assay type: cell-based; details: Table 1; Aspergillus fumigatus
Procedure: (§1) Using standard susceptibility tests, the compounds of the invention were determined to be active against MRSA, C. neoformans and several other bacteria, fungi and protozoa. More specifically, the antibacterial and antifungal testing was carried out in the following manner. Cryptococcus neoformans ATCC 90113 and MRSA were obtained from the American Type Culture Collection (Manassas. Va.). Several others including Candida albicans ATTC 90028, Aspergillus fumigatus ATCC 90906 and Mycobacterium intracellulare (M. intracellulare) ATCC 23086 were also procured. Susceptibility testing was performed using a modified version of the National Committee for Clinical Laboratory Standards method. M. intracellulare was tested using a modified method of Franzblau, et al., J. Clin. Microbiol., 1998, 36, 362-366. DMSO solutions of samples were serially diluted in saline, and transferred in duplicate to 96 well microplates. Microbial suspensions were diluted in the broth to afford desired colony forming units/mL according to the 0.5 McFarland Standard [C. Albicans: either Saboraud Dextrose broth (SDB) or RPMI 1640, C. neoformans: SDB, A fumigatus: either YM broth (for MICS) or RPMI-1640+5% Alamar Blue.] After adding microbial cultures to the sampled afforded a final volume of 200 μL and final test concentration starting with 20 μg/mL, plates were read prior to and after final incubation using either fluorescence at 544ex/590em (M intracellulare, A. fumigatus) using the Polarstar galaxy reader (Biotek Instruments, Vermont). Growth (saline only), solvent and blank (media only) controls were included on each test plate. Drug controls [Ciprofloxacin (ICN Biomedicals, Ohio) for bacteria and Amphotericin B (ICN Biomedicals, Ohio) for fungi] were included in each assay. Percent growth was calculated and plotted versus test concentration to afford IC50 (sample concentration that affords 50% inhibition or growth of the organism). The minimum inhibitory concentration (MIC) was determined by visually inspecting the plate, and is defined as the lowest test concentration that allows no detectable growth (for Almar Blue assays, no color change from blue to pink).

MRSA = assay: Antibacterial susceptibility testing, MRSA; assay type: cell-based, methicillin resistant Staphylococcus aureus; details: Table 1
Procedure: as §1

[2] = test system: Candida albicans ATTC 90028; assay: Antifungal susceptibility testing, Candida albicans; assay type: cell-based; details: Table 1
Procedure: as §1

[3] = test system: Cryptococcus neoformans ATCC 90113; assay: Antifungal susceptibility testing, Cryptococcus neoformans; assay type: cell-based; details: Table 1
Procedure: as §1

| Compound | A fu IC50 [1] | A fu MFC [1] | A fu MIC [1] | MRS IC50 (MRSA) | MRS MFC (MRSA) | MRS MIC (MRSA) | Ca IC50 [2] | Ca MFC [2] | Ca MIC [2] | Cn IC50 [3] | Cn MFC [3] | Cn MIC [3] |
| --- | --- | --- | --- | --- | --- | --- | --- | --- | --- | --- | --- | --- |
| Fc1ccccc1Sc1cc2ccccc2[n+](CCCCCc2ccccc2)c1.[I-] [XYZ-IV-19] | 0.20 µg/mL | — ((-) = >20 μg/mL) | 0.31 µg/mL | 0.40 µg/mL | 5.0 µg/mL | 0.63 µg/mL | 2.5 µg/mL | 20 µg/mL | 10 µg/mL | 0.25 µg/mL | 2.5 µg/mL | 0.63 µg/mL |
| COc1ccc(Sc2cc3ccccc3[n+](CCCCCc3ccccc3)c2)cc1.[I-] [XYZ-III-72] | 3.5 µg/mL | — ((-) = >20 μg/mL) | 10 µg/mL | 2.0 µg/mL | 10 µg/mL | 5.0 µg/mL | — ((-) = >20 μg/mL) | — ((-) = >20 μg/mL) | — ((-) = >20 μg/mL) | 9.5 µg/mL | — ((-) = >20 μg/mL) | 20 µg/mL |
| [I-].[O-][S+](c1cc2ccccc2[n+](CCCCCc2ccccc2)c1)c1ccccc1Br (stereo not shown) [XYZ-IV-98] | 15 µg/mL | — ((-) = >20 μg/mL) | — ((-) = >20 μg/mL) | 0.35 µg/mL | — ((-) = >20 μg/mL) | 1.3 µg/mL | — ((-) = >20 μg/mL) | — ((-) = >20 μg/mL) | — ((-) = >20 μg/mL) | 5.5 µg/mL | — ((-) = >20 μg/mL) | 20 µg/mL |
| [I-].[O-][S+](c1cccc(C(F)(F)F)c1)c1cc2ccccc2[n+](CCCCCc2ccccc2)c1 (stereo not shown) [XYZ-IV-87] | — ((-) = >20 μg/mL) | — ((-) = >20 μg/mL) | — ((-) = >20 μg/mL) | 0.25 µg/mL | 20 µg/mL | 1.3 µg/mL | — ((-) = >20 μg/mL) | — ((-) = >20 μg/mL) | — ((-) = >20 μg/mL) | 6.5 µg/mL | 20 µg/mL | 20 µg/mL |
| [I-].[O-][S+](c1cc2ccccc2[n+](CCCCCc2ccccc2)c1)c1ccccc1F (stereo not shown) [XYZ-IV-100] | — ((-) = >20 μg/mL) | — ((-) = >20 μg/mL) | — ((-) = >20 μg/mL) | 1.5 µg/mL | — ((-) = >20 μg/mL) | 5.0 µg/mL | — ((-) = >20 μg/mL) | — ((-) = >20 μg/mL) | — ((-) = >20 μg/mL) |  | — ((-) = >20 μg/mL) | — ((-) = >20 μg/mL) |
| COc1ccc([S+]([O-])c2cc3ccccc3[n+](CCCCCc3ccccc3)c2)cc1.[I-] (stereo not shown) [XYZ-V-21] | — ((-) = >20 μg/mL) | — ((-) = >20 μg/mL) | — ((-) = >20 μg/mL) | 7.00 µg/mL | — ((-) = >20 μg/mL) | 20 µg/mL | — ((-) = >20 μg/mL) | — ((-) = >20 μg/mL) | — ((-) = >20 μg/mL) | — ((-) = >20 μg/mL) | — ((-) = >20 μg/mL) | — ((-) = >20 μg/mL) |
| Brc1ccccc1Sc1cc2ccccc2[n+](CCCCCc2ccccc2)c1.[I-] [XYZ-III-85] | 0.50 µg/mL | — ((-) = >20 μg/mL) | 5.0 µg/mL | 0.95 µg/mL | 10 µg/mL | 2.5 µg/mL | 20 µg/mL | — ((-) = >20 μg/mL) | — ((-) = >20 μg/mL) | 1.5 µg/mL | 10 µg/mL | 5.0 µg/mL |
| [I-].[O-][S+](c1ccc(F)cc1)c1cc2ccccc2[n+](CCCCCc2ccccc2)c1 (stereo not shown) [XYZ-IV-84] | — ((-) = >20 μg/mL) | — ((-) = >20 μg/mL) | — ((-) = >20 μg/mL) | 0.80 µg/mL | 20 µg/mL | 5.0 µg/mL | — ((-) = >20 μg/mL) | — ((-) = >20 μg/mL) | — ((-) = >20 μg/mL) |  | — ((-) = >20 μg/mL) | — ((-) = >20 μg/mL) |
